The structures appear in SMILES notation. Non-standard residues stand in square brackets, D forms with d. Residues, ends and D or L forms follow the SMILES beside them. Nle = CCCC[C@H](N)C(=O)O

In one data set the test system is rat NMDA injury model. Nature of the data set: Rat NMDA injury model, fundus photography. In kind it is in vivo, SD rats. The following applies: Ac-LM-HMRG 2 mM, 2 μL to the eye. Here is the method:
SD rats were placed under general anesthesia using Nembutal. N-methyl-D-aspartic acid (NMDA) (10 mM, 2 μL) or PBS was administered to the eye. The animals were again placed under anesthesia by ketamine-xylazine mixture four hours later, and Ac-LM-HMRG (2 mM, 2 μL) was administered to the eye. The fundus was photographed by an F10 (Nidec confocal biomicroscope).
In FIGS. 5 and 6, locations indicated by an arrow show nerve cells stained by HMRG.

Data set [1] deals with calpain activity in HeLa cells. In words: Live cell imaging of calpain activity in HeLa cells. In kind it is cell-based. As to conditions: for visualization of calpain activity in HeLa cells (fluorescence image): 30 minutes with 10 KM of probe, confocal microscope. The protocol: The calpain activity in HeLa cells was visualized by the following procedure using Ac-LLY-HMRG.
(a) HeLa cells were incubated for one hour at 37° C. using FBS (BD Pharmingen stain buffer)-free DMEM (Dulbecco's modified Eagle's medium), and also incubated for 30 minutes by 10 KM of Ac-LLY-HMRG. Fluorescence images and transmission images were taken thereafter using a confocal microscope.
The calpain activity in HeLa cells was visualized by the following procedure using Ac-LM-HMRG.
(a) HeLa cells were incubated for one hour at 37° C. using FBS (BD Pharmingen stain buffer)-free DMEM (Dulbecco's modified Eagle's medium), (b) 1 KM ALLN (calpain selective inhibitor)-containing DMEM (FBS (−)), (c) 2 KM ALLN-containing DMEM (FBS (−)), and (d) 5 KM ALLN-containing DMEM (FBS (−)), and also incubated for 30 minutes by 10 KM of Ac-LM-HMRG. Fluorescence images and transmission images were taken thereafter using a confocal microscope. The results are shown in FIGS. 4a-4d (the left side of each drawing is the fluorescence image; the right side is the transmission image). The scale bar in the drawing is 50 μm.

The next data set deals with mouse NMDA injury model. Nature of the data set: Flat-mounted retinas with mouse NMDA injury model. The data set is classed as in vivo, BL6/J mice. The following applies: Ac-LM-HMRG 0.5 mM, 1 μL to the eye. The protocol: A study by mouse NMDA injury model was conducted with flat-mounted retinas. […] After one week, the mice were anesthetized by Nembutal, and 1 μL of 30 mM NMDA (PBS solution) or 1 μL of PBS was administered to the vitreous body in the eye. Two weeks later, the mice were again anesthetized by ketamine-xylazine, and Ac-LM-HMRG (0.5 mM, 1 μL, PBS solution) was administered to the eye. One hour after Ac-LM-HMRG administration, Sytox (registered trademark) Orange (for staining cells that have undergone cell death, […], 1 μL, PBS solution) (manufactured by Invitrogen) was administered to the vitreous body. Ten minutes later, the eyeball was removed, fixed for two hours by 4% paraformaldehyde (PFA), and flat-mounted retinas were prepared.

Data set [2] in a line: Measurement of the optical properties. The following applies: 0.2 M sodium phosphate buffer of pH 2. In kind it is physicochemical. The protocol:
The optochemical properties of Ac-LLY-HMRG and Ac-LM-HMRG were measured in 0.2 M sodium phosphate buffer of pH 2.

Data set [3] deals with calpain-2 from porcine kidney. In words: In vitro enzyme assay using calpain (calpain 2). In kind it is biochemical. The following applies: probe 1 μM, 50 mM Tris buffer pH 7.4, 500 μM CaCl2, 25° C., excitation 495 nm, fluorescence 524 nm. Here is the method:
(§1) A calpain enzyme addition assay was conducted in Tris buffer under the following conditions using a probe synthesized and designed by the above method. As a result, the absorption and fluorescence intensity of Ac-LLY-HMRG increased about two-fold due to the enzymatic reaction, and it was confirmed to function as a calpain probe. The results are shown in FIG. 1a (using calpain 1) and FIG. 1b (using calpain 2).
(§2) A quantity of 3 μL of a DMSO solution (1 mM) of the probe was dissolved in 3 mL of 50 mM Tris buffer (pH 7.4) (containing 5 μM of CaCl2 for calpain 1 and 500 μM of CaCl2 for calpain 2) (final probe concentration: 1 μM). […] The excitation wavelength was 495 nm, and the fluorescence wavelength was 524 nm. […]
(§3) A calpain enzyme addition assay was conducted in Tris buffer using a probe synthesized and designed by the above method. As a result, the absorption and fluorescence intensity of Ac-LM-HMRG increased about four-fold due to the enzymatic reaction with calpain 2, and it was confirmed to function as a calpain probe. […]
(§4) A quantity of 3 μL of a DMSO solution (1 mM) of the probe was dissolved in 3 mL of 50 mM Tris buffer (pH 7.4) (containing 5 μM of CaCl2 for calpain 1 and 500 μM of CaCl2 for calpain 2) (final probe concentration: 1 μM). […] The excitation wavelength was 495 nm, and the fluorescence wavelength was 524 nm.

For data set [4], the target named is T1, calpain-1 from human erythrocytes (Homo sapiens, UniProt P07384).
T1 construct: calpain-1 from human erythrocytes; purchased 208713; host or cells: purified from human erythrocytes
T1 sequence (P07384 1-714): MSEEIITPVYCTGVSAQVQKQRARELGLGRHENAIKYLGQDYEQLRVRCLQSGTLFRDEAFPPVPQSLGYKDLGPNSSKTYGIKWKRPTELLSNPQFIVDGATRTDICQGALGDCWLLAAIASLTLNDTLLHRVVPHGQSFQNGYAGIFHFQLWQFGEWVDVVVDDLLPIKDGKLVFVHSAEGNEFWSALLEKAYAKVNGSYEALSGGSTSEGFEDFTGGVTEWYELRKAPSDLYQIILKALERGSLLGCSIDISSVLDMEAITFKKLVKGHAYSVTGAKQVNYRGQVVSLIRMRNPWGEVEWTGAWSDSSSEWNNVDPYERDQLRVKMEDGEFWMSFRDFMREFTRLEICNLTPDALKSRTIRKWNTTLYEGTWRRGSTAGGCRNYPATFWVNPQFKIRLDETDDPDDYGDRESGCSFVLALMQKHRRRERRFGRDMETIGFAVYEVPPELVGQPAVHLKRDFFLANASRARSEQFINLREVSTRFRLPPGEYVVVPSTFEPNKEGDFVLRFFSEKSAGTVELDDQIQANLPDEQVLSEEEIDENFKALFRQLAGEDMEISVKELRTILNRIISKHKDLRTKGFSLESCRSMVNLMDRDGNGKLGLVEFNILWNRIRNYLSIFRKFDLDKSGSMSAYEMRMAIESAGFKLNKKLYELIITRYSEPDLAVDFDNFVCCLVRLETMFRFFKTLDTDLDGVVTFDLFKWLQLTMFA
T1 sequence (P04632 1-268 partner): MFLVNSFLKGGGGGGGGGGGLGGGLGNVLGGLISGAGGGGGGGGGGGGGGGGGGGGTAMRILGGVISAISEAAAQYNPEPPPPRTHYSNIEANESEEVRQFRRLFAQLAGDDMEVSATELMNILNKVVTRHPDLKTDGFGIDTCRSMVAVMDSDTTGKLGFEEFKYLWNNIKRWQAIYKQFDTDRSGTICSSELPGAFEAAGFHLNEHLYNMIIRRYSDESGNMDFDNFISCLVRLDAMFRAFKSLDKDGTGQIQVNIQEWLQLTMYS
In words: In vitro enzyme assay using calpain (calpain 1). In kind it is biochemical. The following applies: probe 1 μM, 50 mM Tris buffer pH 7.4, 5 μM CaCl2, 25° C., excitation 495 nm, fluorescence 524 nm. The protocol:
as §1, §2, §3, §4

On to `CC(=O)N[C@@H](CC(C)C)C(=O)N[C@@H](CC(C)C)C(=O)N[C@@H](Cc1ccc(O)cc1)C(=O)Nc1ccc2c(c1)Oc1cc(N)ccc1C21OCc2ccccc21` (stereo partly shown) [Ac-LM-HMRG], for which the “staining of nerve cells in fundus photograph, NMDA group” value in the data set on rat NMDA injury model (NMDA-administered rats, 30, 60, and 90 minutes after administration) is given as “nerve cells were clearly stained”. The “staining of nerve cells in fundus photograph, PBS group” value in the data set on rat NMDA injury model (PBS-administered rats, after 30, 60 and 90 minutes) is “nerve cells were only very slightly stained”. In addition, the “visualization of calpain activity in HeLa cells (fluorescence image)” value in data set [1] is given as “made it possible to monitor the calpain activity inside HeLa cells”. The “staining of flat-mounted retina, NMDA group” value with mouse NMDA injury model (NMDA group mice) is listed as “calpain activity was detected”. Besides, in the data set on mouse NMDA injury model (PBS group mice), the “staining of flat-mounted retina, PBS group” value was “not found”. In data set [2], this molecule had an Absmax of 470 nm, an Emmax of 529 nm and a Φn of 0.32. Also, the “increase of absorption and fluorescence intensity due to the enzymatic reaction” value (from here on “increase”) in data set [3] is “about four-fold”.
In data set [2], `N=c1ccc2c(-c3ccccc3CO)c3ccc(N)cc3oc-2c1` [HMRG, reference compound] gave an Absmax of 501 nm, an Emmax of 524 nm and a Φn of 0.81.
Consider `CCCC[C@@H](C=O)NC(=O)[C@H](CC(C)C)NC(=O)[C@H](CC(C)C)NC(C)=O` [ALLN, reference compound] (Ac-Leu-Leu-[Nle]-aldehyde), for which the “effect of inhibitor on fluorescence intensity within the cells” value in data set [1] (for one hour at 37° C., then 10 KM of Ac-LM-HMRG for 30 minutes) is on record as “decreased the fluorescence intensity within the cells”.
Regarding `CSCC[C@H](NC(=O)[C@H](CC(C)C)NC(C)=O)C(=O)Nc1ccc2c(c1)Oc1cc(N)ccc1C21OCc2ccccc21` (stereo partly shown) [Ac-LLY-HMRG], the “visualization of calpain activity in HeLa cells (fluorescence image)” value in data set [1] was “made it possible to monitor the calpain activity inside HeLa cells”. Also, in data set [2], the Absmax is recorded as 470 nm, the Emmax came out at 526 nm and the Φn was 0.19. Also, the “increase” value in data set [3] is reported as “about two-fold”. Moreover, in data set [4], the “increase” value is recorded as “about two-fold”.

For the origin of these results see US20180162871A1, “FLUORESCENT PROBE FOR DETECTING CALPAIN ACTIVITY” (The University of Tokyo, priority 2015, published 2018).
